US20120225817A1, “THERAPEUTIC AGENT FOR GASTROINTESTINAL DISEASE” (Santen Pharmaceutical Co., Ltd., priority 2009, published 2012)
Residues, ends and D or L forms follow the SMILES beside them.

Tested on: Caco-2 cells
Assay: Effect on migration of gastrointestinal mucosal tissue cells (cut in a confluent Caco-2 cell layer, cell spreading area)
Format: cell-based, human
Details: for Migration of Caco-2 cells (%): 18 hours, control = 100%, mean ± standard error, 8 samples
Method: An effect on cell migration was studied by the following method using Caco-2 cells which are a human colon cancer cell line.
In a 24-well plate coated with type IV collagen, Caco-2 cells were seeded at […] cells per well and cultured to confluence in a DMEM medium containing 10% FBS. A cut was formed in the cell layer using a razor blade, and a cell-free region was created with a cotton swab. After washing with a DMEM medium containing 1% FBS, the cells were cultured for 18 hours in the same medium containing each test compound under conditions of 37° C. and 5% CO2. The effect on the migration of Caco-2 cells was studied by taking pictures before adding the test compound and at 18 hours after the addition of the test compound and comparing cell spreading areas in a fixed region at 18 hours after the addition of the test compounds. Further, Caco-2 cells cultured in the same manner in the medium without containing the test compound were used as a control.
The results of the case where a single agent of SSSR was used are shown in Table 1, and the results of the case where SSSR and FGLM-NH2 were used in combination are shown in Table 2. In the tables, the migration of the Caco-2 cells is expressed as a mean and standard error calculated from the results of 8 samples for each test compound by taking the migration of the control cells as a standard (100%). Incidentally, the symbol “★★” indicates a statistical significance at a P value of <0.001 compared to the control.

CSCC[C@H](NC(=O)[C@H](CC(C)C)NC(=O)CNC(=O)[C@@H](N)Cc1ccccc1)C(N)=O [FGLM-NH2, Phe-Gly-Leu-Met-NH2] (H-FGLM-NH2; N-terminus assumed)
Migration of Caco-2 cells (%) (FGLM-NH2 20 μM): 105.9 ± 3.9%
Effect on migration of Caco-2 cells (in words) (single agent, FGLM-NH2 trifluoroacetate at 20 μM): does not promote the migration of Caco-2 cells

N=C(N)NCCC[C@H](NC(=O)[C@H](CO)NC(=O)[C@H](CO)NC(=O)[C@@H](N)CO)C(=O)O [SSSR, Ser-Ser-Ser-Arg] (H-SSSR-OH; N-terminus and C-terminus assumed)
Migration of Caco-2 cells (%) (SSSR 10 nM): 109.7 ± 5.1%
Migration of Caco-2 cells (%) (SSSR 30 μM): 125.0 ± 2.0 %
Effect on migration of Caco-2 cells (in words) (SSSR trifluoroacetate at 30 μM): promotes the migration of Caco-2 cells
Effect on migration of Caco-2 cells (in words) (single agent, SSSR trifluoroacetate at 10 nM): does not promote the migration of Caco-2 cells
